In the supplement of paper PMC10307832:

Key:
Test in all cases: relative viability (nuclei count vs DMSO), 5 days (fraction); higher = more cells survive
201T = tested on: 201T
In short: (§1)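 Values are medians from duplicate plates. Each reflects relative viability, defined as the nuclei count of treated wells over that of vehicle wells. Lung cancer cell lines in 1536-well plates were pin-tool dosed one day after seeding with one drug alone or with a fixed anchor-drug dose plus five library-drug doses (not always all listed) in √10 steps, then fixed, stained and imaged at 4× after 5 days.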

A-427 = tested on: A-427
In short: as §1

BEN = tested on: BEN
In short: as §1

COR-L23 = tested on: COR-L23
In short: as §1

EKVX = tested on: EKVX
In short: as §1

EMC-BAC-2 = tested on: EMC-BAC-2
In short: as §1

EPLC-272H = tested on: EPLC-272H
In short: as §1

HCC-827 = tested on: HCC-827
In short: as §1

LCLC-103H = tested on: LCLC-103H
In short: as §1

LK-2 = tested on: LK-2
In short: as §1

LXF-289 = tested on: LXF-289
In short: as §1

NCI-H1650 = tested on: NCI-H1650
In short: as §1

NCI-H1651 = tested on: NCI-H1651
In short: as §1

NCI-H1793 = tested on: NCI-H1793
In short: as §1

NCI-H1915 = tested on: NCI-H1915
In short: as §1

NCI-H2087 = tested on: NCI-H2087
In short: as §1

NCI-H2126 = tested on: NCI-H2126
In short: as §1

NCI-H2347 = tested on: NCI-H2347
In short: as §1

NCI-H358 = tested on: NCI-H358
In short: as §1

NCI-H460 = tested on: NCI-H460
In short: as §1

NCI-H596 = tested on: NCI-H596
In short: as §1

SW 1573 = tested on: SW 1573
In short: as §1

Molecule Cc1cnc(-c2cnc(NCCNc3ccc(C#N)cn3)nc2-c2ccc(Cl)cc2Cl)[nH]1 + Cc1nc(Nc2ncc(C(=O)Nc3c(C)cccc3Cl)s2)cc(N2CCN(CCO)CC2)n1 [Dasatinib] (partner 0.075 µM) has a relative viability (201T; first compound 0.08 µM) of 0.621, a relative viability (201T; first compound 0.8 µM) of 0.591 and a relative viability (201T; first compound 2.53 µM) of 0.571. It also gave a relative viability (A-427; first compound 0.08 µM) of 0.747, a relative viability (A-427; first compound 0.253 µM) of 0.589 and a relative viability (A-427; first compound 0.8 µM) of 0.738. The relative viability (A-427; first compound 2.53 µM) was 0.682, the relative viability (BEN; first compound 0.08 µM) was 0.332 and the relative viability (BEN; first compound 0.253 µM) was 0.364. For the same molecule, the relative viability (BEN; first compound 0.8 µM) was 0.291, the relative viability (BEN; first compound 2.53 µM) was 0.351 and the relative viability (COR-L23; first compound 0.253 µM) was 0.419. For the same molecule, the relative viability (COR-L23; first compound 0.8 µM) was 0.51, the relative viability (COR-L23; first compound 2.53 µM) was 0.5 and the relative viability (EKVX; first compound 0.08 µM) was 0.608. It also gave a relative viability (EKVX; first compound 0.253 µM) of 0.518, a relative viability (EKVX; first compound 0.8 µM) of 0.494 and a relative viability (EKVX; first compound 2.53 µM) of 0.493. The relative viability (EMC-BAC-2; first compound 0.08 µM) was 0.409, the relative viability (EMC-BAC-2; first compound 0.253 µM) was 0.336 and the relative viability (EMC-BAC-2; first compound 0.8 µM) was 0.317. For the same molecule, the relative viability (EMC-BAC-2; first compound 2.53 µM) was 0.332, the relative viability (EPLC-272H; first compound 0.253 µM) was 0.374 and the relative viability (EPLC-272H; first compound 0.8 µM) was 0.409. It also gave a relative viability (EPLC-272H; first compound 2.53 µM) of 0.397, a relative viability (HCC-827; first compound 0.08 µM) of 0.371 and a relative viability (HCC-827; first compound 0.8 µM) of 0.291. The relative viability (HCC-827; first compound 2.53 µM) was 0.318, the relative viability (LCLC-103H; first compound 0.08 µM) was 0.404 and the relative viability (LCLC-103H; first compound 0.253 µM) was 0.442. It also gave a relative viability (LCLC-103H; first compound 0.8 µM) of 0.434, a relative viability (LCLC-103H; first compound 2.53 µM) of 0.433 and a relative viability (LK-2; first compound 0.08 µM) of 0.387. For the same molecule, the relative viability (LK-2; first compound 0.253 µM) was 0.302, the relative viability (LK-2; first compound 0.8 µM) was 0.39 and the relative viability (LXF-289; first compound 0.08 µM) was 0.249. It also gave a relative viability (LXF-289; first compound 0.253 µM) of 0.204, a relative viability (LXF-289; first compound 0.8 µM) of 0.189 and a relative viability (LXF-289; first compound 2.53 µM) of 0.139. For the same molecule, the relative viability (NCI-H1650; first compound 0.08 µM) was 0.31, the relative viability (NCI-H1650; first compound 0.253 µM) was 0.345 and the relative viability (NCI-H1650; first compound 0.8 µM) was 0.295. It also gave a relative viability (NCI-H1650; first compound 2.53 µM) of 0.312, a relative viability (NCI-H1651; first compound 0.08 µM) of 0.426 and a relative viability (NCI-H1651; first compound 0.253 µM) of 0.436. The relative viability (NCI-H1651; first compound 0.8 µM) was 0.376, the relative viability (NCI-H1651; first compound 2.53 µM) was 0.355 and the relative viability (NCI-H1793; first compound 0.08 µM) was 0.384. The relative viability (NCI-H1793; first compound 0.253 µM) was 0.365, the relative viability (NCI-H1793; first compound 0.8 µM) was 0.411 and the relative viability (NCI-H1793; first compound 2.53 µM) was 0.468. The relative viability (NCI-H1915; first compound 0.08 µM) was 0.339, the relative viability (NCI-H1915; first compound 0.253 µM) was 0.294 and the relative viability (NCI-H1915; first compound 0.8 µM) was 0.342. The relative viability (NCI-H1915; first compound 2.53 µM) was 0.311, the relative viability (NCI-H2087; first compound 0.08 µM) was 0.837 and the relative viability (NCI-H2087; first compound 0.253 µM) was 0.698. The relative viability (NCI-H2087; first compound 0.8 µM) was 0.919, the relative viability (NCI-H2087; first compound 2.53 µM) was 0.614 and the relative viability (NCI-H2126; first compound 0.08 µM) was 0.686. For the same molecule, the relative viability (NCI-H2126; first compound 0.253 µM) was 0.54, the relative viability (NCI-H2126; first compound 0.8 µM) was 0.604 and the relative viability (NCI-H2126; first compound 2.53 µM) was 0.529. For the same molecule, the relative viability (NCI-H2347; first compound 0.08 µM) was 0.279, the relative viability (NCI-H2347; first compound 0.253 µM) was 0.309 and the relative viability (NCI-H2347; first compound 0.8 µM) was 0.283. It also gave a relative viability (NCI-H2347; first compound 2.53 µM) of 0.333, a relative viability (NCI-H358; first compound 0.08 µM) of 0.157 and a relative viability (NCI-H358; first compound 0.253 µM) of 0.17. It also gave a relative viability (NCI-H358; first compound 0.8 µM) of 0.207, a relative viability (NCI-H358; first compound 2.53 µM) of 0.189 and a relative viability (NCI-H460; first compound 0.08 µM) of 0.543. It also gave a relative viability (NCI-H460; first compound 0.253 µM) of 0.404, a relative viability (NCI-H460; first compound 0.8 µM) of 0.557 and a relative viability (NCI-H460; first compound 2.53 µM) of 0.454. The relative viability (NCI-H596; first compound 0.08 µM) was 0.601, the relative viability (NCI-H596; first compound 0.253 µM) was 0.656 and the relative viability (NCI-H596; first compound 0.8 µM) was 0.624. It also gave a relative viability (NCI-H596; first compound 2.53 µM) of 0.607, a relative viability (SW 1573; first compound 0.08 µM) of 0.687 and a relative viability (SW 1573; first compound 0.253 µM) of 0.395. It also gave a relative viability (SW 1573; first compound 0.8 µM) of 0.493 and a relative viability (SW 1573; first compound 2.53 µM) of 0.168.
